Assay results taken from patent US11375718B2, “Use of prodigiosin in resisting potyvirus” (priority 2020, dated 2022).
pIC50: −log10 of the molar value. Residues, ends and D or L forms follow the SMILES beside them. *: point of attachment. Cbz = O=C(OCc1ccccc1)*

How the values were obtained:
Hsp70 protein = assay: Western blot of Hsp70 protein in MG-132-treated plants induced by prodigiosin S3; type: in vivo, Nicotiana benthamiana
Experimental: In order to further analyze the role of ubiquitination modification in the antiviral mechanism of prodigiosin S3, we used MG-132 to treat Nicotiana benthamiana in advance. After 2 h, 0.05 μg/L prodigiosin was applied on the tobacco leaf surface uniformly according to 15 L/mu. After 30 minutes, TMV and PVY viruses were inoculated. The samples of 1 d, 2 d and 3 d after virus inoculation were collected for Western Blot analysis.

26S proteasome complex = conditions: read-out: IC50 (proteasome inhibitor); cited from earlier work
[1] = Quantitative proteomics and ubiquitination omics of prodigiosin-treated tobacco leaves; type: in vivo, Nicotiana benthamiana; conditions: treatment group vs control group, p<0.05
From the text: In order to further understand the mechanism of systemic resistance of a plant induced by prodigiosin, the prodigiosin treated Nicotiana benthamiana was used as a target material, the optimal reaction time point of prodigiosin against PVY was selected, and the quantitative proteomics and ubiquitinated nonstandard quantitative proteomics in tobacco leaves were studied by organically combining a series of advanced technologies such as non-standard quantitative technology, high performance liquid chromatography (HPLC) fractionation technology, ubiquitinated peptide enrichment technology and quantitative proteomics technology based on mass spectrometry.
Extraction of protein. The leaf sample was taken from −80° C., put in a mortar precooled with liquid nitrogen, fed with liquid nitrogen, and fully ground to powder; 4 times the volume of powdered lysis buffer (8 M urea, 1% TritonX-100, 10 mM DTT, 1% protease inhibitor and 50 μM PR-619) was added for ultrasonic lysis; followed by 10 min of centrifugation (4° C., 20000 g), the supernatant was carefully aspirated off, and trichloroacetic acid was added to a final concentration of 20%; the mixture was left at 4° C. for 2 h; and centrifuged (4° C., 20000 g) for 3 min. The supernatant was discharged, and the precipitate was washed with precooled acetone for three times; the precipitate was re-dissolved (8 M urea) and the protein concentration was determined.
Proteolysis. DTT was added to the protein solution to a final concentration of 5 mM and was reduced at 56° C. for 30 min. Iodoacetamide was then added and incubated for 15 min at room temperature away from light. Pancreatin was added based on a mass ratio of pancreatin:protein=1:50 and enzymolysis was performed at 37° C. overnight. Pancreatin was added again based on a mass ratio of pancreatin:protein=1:100 and enzymolysis was continued for 4 h.
HPLC Fractionation. The enzymatic solution was fractionated by high pH reverse phase HPLC on an Agilent 300 Extend C18 (5 μm particle size, 4.6 mm internal diameter, 250 mm length) column. The operation was as follows: a peptide fragment grading gradient was 8%-32% acetonitrile, the pH was 9; 60 components were separated in 60 min, then the components were combined into 4 components, and the combined components were subjected to lyophilization for subsequent operations.
HPLC-MS Analysis. The lyophilized fractions were analyzed by HPLC-MS: dissolved by a mobile phase A phase (0.1% (v/v) formic acid in water) and separated using EASY-nLC 1000 ultra high performance liquid phase system. […]
Database Search. […] Differential genes and proteins were analyzed by GO enrichment, and KEGG pathway.

TMV = assay: Induced resistance of tobacco to TMV after leaf application of prodigiosin; type: in vivo, Nicotiana tabacum cv. NC89; conditions: infiltration treatment
Experimental: (§1) The plant material used in this experiment was Nicotiana tabacum cv. NC89, reproduced by our laboratory and cultivated in a greenhouse. Experimental plant culture conditions included: illumination 16 h, temperature 25±1° C., illumination intensity 2000 lux and relative humidity 60%; and dark duration 8 h, temperature 25±1° C. and relative humidity 60%. The nutrient substrate was produced by the Wode nutrient soil processing plant in Shouguang City, Shandong Province, and no additional fertilization was needed during plant growth. The sources of TMV and PVY were preserved by the Plant Protection Research Center of the Institute of Tobacco Research of CAAC (Chinese Academy of Agricultural Sciences), and were propagated and preserved on Nicotiana tabacum cv. NC89 grown in the greenhouse. The prodigiosin S3 was isolated and purified from Serratia marcescens fermentation broth by Plant Protection Research Center of the Institute of Tobacco Research of CAAC.

PVY = assay: Induced resistance of tobacco to PVY after leaf application of prodigiosin; type: in vivo, Nicotiana tabacum cv. NC89; conditions: infiltration treatment
Experimental: as §1

[2] = 2031 sites on 1110 proteins identified

| Structure (SMILES) | content of Hsp70 protein (Hsp70 protein; MG-132-treated samples induced by prodigiosin S3) | accumulation of Hsp70 protein (Hsp70 protein; MG-132 in advance, after 2 h 0.05 μg/L prodigiosin at 15 L/mu, inoculated after 30 minutes, PVY virus 1 d, vs control group) | pIC50 (26S proteasome complex) | number of ubiquitination sites with down-regulated modification level [1, 2] | number of ubiquitination sites with up-regulated modification level [1, 2] | number of proteins with down-regulated expression ([1]; 6122 proteins identified) | number of proteins with up-regulated expression ([1]; 6122 proteins identified) | induced resistance to TMV (TMV) | induced resistance to PVY (PVY) |
| --- | --- | --- | --- | --- | --- | --- | --- | --- | --- |
| CC(C)C[C@@H](C=O)NC(=O)[C@H](CC(C)C)NC(=O)[C@H](CC(C)C)NC(=O)OCc1ccccc1 [MG-132] (Cbz-Leu-Leu-Leu-aldehyde) | increases significantly | significantly increased | 7.00 |  |  |  |  |  |  |
| CCCCCC1=C/C(=C/c2[nH]c(-c3ccc[nH]3)cc2OC)N=C1C [prodigiosin] |  |  |  | 21 | 33 | 186 | 223 | 100% | 100% |
